Test results taken from paper PMC11016601, “Exploring the bioaccessibility and intestinal absorption of major classes of pure phenolic compounds using in vitro simulated gastrointestinal digestion” (Heliyon, 2024).
Values joined by “and” are separate entries in the source; they are usually repeats but may differ in a detail not shown here. Equal entries are not always repeated. Where two headings read alike, the source gives them in different places. Marks after values point to notes of the source that are not given here.

Columns and labels:
[1] = In vitro simulated gastrointestinal digestion (SGD, INFOGEST 2.0): concentration and bioaccessibility by UHPLC-DAD-MSn; settings: for Bioaccessibility (%), initial solution (IS): reference
Experimental: Preliminary solubility tests in different solvents, namely water, sodium phosphate buffer (26.8 mM, pH 6.1), ethanol, and also a mixture of ethanol with both water and sodium phosphate buffer, were carried out for each PC (data not shown), to prevent erroneous data arising from compounds precipitation. Ethanol percentages used in these preliminary solubility tests were 10, 15, and 20% (v/v).
Each PC solubilized in ethanol:water (15% v/v) was then submitted to an in vitro SGD (INFOGEST 2.0), according to a standardized protocol (Fig. 2). In order to determine whether the interaction between the compounds and enzymes led to an underestimation of their content, each PC solution was submitted to the same digestion procedure, replacing the enzyme solutions with water, which were designed as controls, henceforth this will be the term used. Each sample and control were submitted to three independent in vitro digestion simulations, and after each digestion phase, a sample/control was collected and further analyzed and quantified by UHPLC-DAD-MSn.
(§1) Mouth digestion of each PC solution (1 mL) was diluted in 0.8 mL of simulated salivary fluid (SSF) and α-amylase (75 U mL-1). Then, the mixture was incubated for 2 min at 37 °C under agitation (200 rpm). In order to start gastric digestion, pH was adjusted to 3.0 using 1 M aqueous HCl and then, a pepsin solution (2000 U mL-1) and simulated gastric fluid (SGF) were added. Subsequently, the mixture was incubated for 2h, at 37 °C and 130 rpm orbital agitation for the stomach digestion. Finally, the small intestine digestion simulation was performed after pH adjustment to 7.0 using 1 M aqueous […] and the addition of pancreatin (100 U mL-1), bile salts solution (10 mM) and simulated intestinal fluid (SIF), during 2 h, at 37 °C with 45 rpm orbital agitation. Natural small intestine absorption was also simulated, by placing the remaining sample in a dialysis membrane, and immersed in distilled water overnight at room temperature.
At each sampling point, an aliquot (0.5 mL) from each of the three replicates was collected. The enzymatic activity was stopped immediately by adding pure methanol to each aliquot (1:1, v/v) to promote enzyme precipitation and subsequently centrifuged at 10 000 g and 4 °C for 5 min. The supernatants were filtered with a 0.2 μm nylon filter. To determine the concentration of each sample or control, it was considered the following dilution factor – 1:2, 1:4 and 1:8 for oral, gastric and intestinal digestion phase, respectively.
The bioaccessibility percentage (B%) of each PC was calculated using equation (1):(1) B(%)=[DS]/[IS]×100 where IS is the initial concentration of PCs in ethanol:water (15% v/v) solutions, DS is the concentration of each collected sample or control (without enzymes).
(§2) The values of B% and IA% were the average of the three replicates performed, with the calculated standard deviation.
PCs were analyzed in a UHPLC system equipped with a variable loop Accela autosampler (set at 16 °C), an Accela 600 LC pump, and an Accela 80 Hz photo diode array detector (DAD) (Thermo Fisher Scientific, San Jose, CA, USA). Each sample was prepared in methanol:water (1:1, v/v) and filtered through a 0.2 μm nylon syringe filter. […] The mobile phase was composed of acetonitrile (A) and water:acetonitrile (99:1, v/v) (B), both with 0.1 % of formic acid. The gradient elution was performed as follows: 0–1min: 99% B; 1–17 min: 99-73% B, 17–20 min: 73-0% B, 20–25 min: 0–99% B, followed by re-equilibration of the column at 99% B for 4 min.

[2] = Simulation of intestinal absorption using a dialysis membrane (3 kDa) after in vitro SGD
Source text: HPLC-grade methanol, water, and acetonitrile were supplied by Fisher Scientific Chemicals. The enzymes α-amylase (A1031), pepsin from porcine stomach mucosa (P7012), pancreatin from porcine pancreas (P7545), and bile salts (B863) were purchased from Sigma-Aldrich (Taufkirchen, Germany). The rabbit gastric extract (RGE15) with gastric lipase activity was purchased from Lipolytech (Marseille, France). The ethanol was purchased from Merck (Algés, Portugal). A dialysis membrane with a molecular pore size of 3 kDa was purchased from Spectra/Pro (Spectrum Lab, Breda, Netherlands).
as §1
Furthermore, to determine the intestinal absorption, the aliquots collected inside the dialysis membrane were analyzed. The concentration of these samples (from inside of the membrane) corresponds to the amount of each PC that has not passed through to the outside of the membrane.
as §2

[3] = controls (without enzymes), gastric phase
[4] = controls (without enzymes), initial solution
[5] = controls (without enzymes), intestinal phase
[6] = controls (without enzymes), oral phase
[7] = samples with enzymes, after gastric digestion pH 3.0
[8] = samples with enzymes, after intestinal digestion pH 7.0
[9] = samples with enzymes, after oral digestion
[10] = samples with enzymes, gastric phase
[11] = samples with enzymes, intestinal phase
[12] = samples with enzymes, oral phase
[13] = samples, initial ethanol:water (15% v/v) solution

SMILES: O=C(O[C@@H]1Cc2c(O)cc(O)cc2O[C@@H]1c1cc(O)c(O)c(O)c1)c1cc(O)c(O)c(O)c1 [EGCG, epigallocatechin-3-O-gallate]
- Bioaccessibility (%), oral phase (O) ([1]; 2 min): 38.16 ± 12.23^ b %
- Bioaccessibility (%), gastric phase (G) [1, 3]: 61.53% and 61.53 ± 5.39 ^b %
- Concentration, gastric phase (G) [1, 3]: 1272.99 ± 111.59 µg/mL
- Concentration, initial solution (IS) [1, 4]: 2068.93 µg/mL
- Bioaccessibility (%), initial solution (IS) [1, 4]: 100^ a %
- Bioaccessibility (%), intestinal phase (I) [1, 5]: 5.03% and 5.03 ± 0.81 ^d %
- Concentration, intestinal phase (I) [1, 5]: 104.15 ± 16.86 µg/mL
- Bioaccessibility (%), oral phase (O) [1, 6]: 34.13% and 34.13 ± 1.91 ^c %
- Concentration, oral phase (O) [1, 6]: 706.03 ± 39.46 µg/mL
- Concentration, gastric phase (G) [1, 7]: 1473.22 ± 65.28 µg/mL
- Concentration, intestinal phase (I) [1, 8]: 312.22 ± 46.76 µg/mL
- Concentration, oral phase (O) [1, 9]: 789.50 ± 253.03 µg/mL
- Bioaccessibility (%), gastric phase (G) [1, 10]: 71.21% and 71.21 ± 3.16 ^a %
- Bioaccessibility (%), intestinal phase (I) [1, 11]: 15.09% and 15.09 ± 2.26 ^b %
- Bioaccessibility (%), oral phase (O) [1, 12]: 38.16%
- Concentration, initial solution (IS) [1, 13]: 2068.93 µg/mL
- Bioaccessibility (%), initial solution (IS) ([1]; samples, initial solution): 100^ a %
- Concentration, dialysis phase (D) [2]: below the detection limit
- Intestinal absorption (IA%) [2]: very high

SMILES: O=c1c(-c2ccc(O)cc2)coc2cc(O)ccc12 [DAID, daidzein]
- Bioaccessibility (%), gastric phase (G) [1, 3]: 70.95% and 70.95 ± 3.71 ^a %
- Concentration, gastric phase (G) [1, 3]: 12.89 ± 0.67 µg/mL
- Concentration, initial solution (IS) [1, 4]: 18.17 µg/mL
- Bioaccessibility (%), initial solution (IS) [1, 4]: 100^ a %
- Bioaccessibility (%), intestinal phase (I) [1, 5]: 138.68% and 138.68 ± 9.01^ a %
- Concentration, intestinal phase (I) [1, 5]: 25.20 ± 1.64 µg/mL
- Bioaccessibility (%), oral phase (O) [1, 6]: 78.35% and 78.35 ± 24.88^ a %
- Concentration, oral phase (O) [1, 6]: 14.24 ± 4.52 µg/mL
- Concentration, gastric phase (G) [1, 7]: 14.86 ± 1.98 µg/mL
- Concentration, intestinal phase (I) [1, 8]: 28.72 ± 2.03 µg/mL
- Concentration, oral phase (O) [1, 9]: 21.63 ± 5.52 µg/mL
- Bioaccessibility (%), gastric phase (G) [1, 10]: 81.78% and 81.78 ± 10.87 ^a %
- Bioaccessibility (%), intestinal phase (I) [1, 11]: 158.08% and 158.08 ± 11.20^ a %
- Bioaccessibility (%), oral phase (O) [1, 12]: 119.06% and 119.06 ± 30.41^ a %
- Concentration, initial solution (IS) [1, 13]: 18.17 µg/mL
- Bioaccessibility (%), initial solution (IS) ([1]; samples, initial solution): 100^ a %
- Concentration, dialysis phase (D) [2]: below the detection limit

SMILES: Oc1cc(O)cc(O)c1 [PG, phloroglucinol]
- Bioaccessibility (%), oral phase (O) ([1]; 2 min): 92.78 ± 5.91^ b %
- Bioaccessibility (%), gastric phase (G) [1, 3]: 91.32% and 91.32 ± 3.79 ^a %
- Concentration, gastric phase (G) [1, 3]: 4765.51 ± 197.78 µg/mL
- Concentration, initial solution (IS) [1, 4]: 5218 µg/mL
- Bioaccessibility (%), initial solution (IS) [1, 4]: 100 ^a %
- Bioaccessibility (%), intestinal phase (I) [1, 5]: 94.91% and 94.91 ± 5.32 ^a %
- Concentration, intestinal phase (I) [1, 5]: 4952.79 ± 277.44 µg/mL
- Bioaccessibility (%), oral phase (O) [1, 6]: 94.08% and 94.08 ± 1.84 ^a %
- Concentration, oral phase (O) [1, 6]: 4909.58 ± 96.26 µg/mL
- Concentration, gastric phase (G) [1, 7]: 4910.12 ± 200.81 µg/mL
- Concentration, intestinal phase (I) [1, 8]: 8339.90 ± 994.21 µg/mL
- Concentration, oral phase (O) [1, 9]: 4841.66 ± 308.60 µg/mL
- Bioaccessibility (%), gastric phase (G) [1, 10]: 94.09% and 94.09 ± 3.85^ b %
- Bioaccessibility (%), intestinal phase (I) [1, 11]: 159.82% and 159.82 ± 19.05^ a %
- Bioaccessibility (%), oral phase (O) [1, 12]: 92.78%
- Concentration, initial solution (IS) [1, 13]: 5218 µg/mL
- Bioaccessibility (%), initial solution (IS) ([1]; samples, initial solution): 100^ b %
- Concentration, dialysis phase (D) [2]: 225.29 ± 125.33 µg/mL
- Concentration, dialysis phase (D) ([2]; pig): 555.31 ± 145.46 µg/mL
